The structures appear in SMILES notation. Calls of active or inactive are those of the source. No cut-off for these calls is given here.

The target in data set [1] is T1, Tyrosine-protein phosphatase non-receptor type 1 (Homo sapiens, UniProt P18031).
T1 sequence (P18031 whole entry): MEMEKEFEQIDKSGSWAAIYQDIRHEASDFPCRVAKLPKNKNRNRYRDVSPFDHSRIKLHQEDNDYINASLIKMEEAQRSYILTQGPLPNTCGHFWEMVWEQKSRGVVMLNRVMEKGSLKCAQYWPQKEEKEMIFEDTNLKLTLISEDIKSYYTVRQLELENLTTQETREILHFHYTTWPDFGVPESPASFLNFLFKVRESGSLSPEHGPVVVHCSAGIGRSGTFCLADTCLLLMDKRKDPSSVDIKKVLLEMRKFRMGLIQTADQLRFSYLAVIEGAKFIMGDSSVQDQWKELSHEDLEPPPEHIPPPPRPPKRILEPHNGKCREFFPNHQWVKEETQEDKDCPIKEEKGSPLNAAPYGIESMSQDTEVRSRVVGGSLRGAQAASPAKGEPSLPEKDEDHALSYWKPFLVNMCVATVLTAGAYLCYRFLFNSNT
In words: Inhibition of wild type N-terminal 6 his tagged human PTP1B (1 to 400 residues) expressed in Escherichia coli (Rosetta, DE3) using p-NPP as substrate preincubated for 10 mins followed by substrate addition and measured after 20 mins by absorbance based analysis.

In data set [2] the target is T2, Tyrosine-protein phosphatase non-receptor type 1 (Homo sapiens) (UniProt P18031).
T2 sequence (whole entry): T1 sequence (P18031 whole entry)
In words: Binding affinity to wild type N-terminal 6 his tagged human PTP1B (1 to 400 residues) expressed in Escherichia coli (Rosetta, DE3) assessed as affinity constant by fluorescence based analysis.

A short description of data set [3]: Acute toxicity in Swiss Webster mouse assessed as animal death at 30 to 300 mg/kg, po and measured for 2 hrs. In kind it is organism-based. The settings on record: in vivo, dose 30-300 mg/kg.
The nature of data set [4]: Acute toxicity in Swiss Webster mouse assessed as sedation at 30 to 300 mg/kg, po and measured for 2 hrs. In kind it is organism-based. The conditions noted are these: in vivo, dose 30-300 mg/kg.
Data set [5] can be described thus: Acute toxicity in Swiss Webster mouse assessed as loss of motor activity at 30 to 300 mg/kg, po and measured for 2 hrs. In kind it is organism-based. The conditions noted are these: in vivo, dose 30-300 mg/kg.
Data set [6] can be described thus: Acute toxicity in Swiss Webster mouse assessed as hyperactivity at 30 to 300 mg/kg, po and measured for 2 hrs. It counts as organism-based. The conditions noted are these: in vivo, dose 30-300 mg/kg.
Data set [7] can be described thus: Acute toxicity in Swiss Webster mouse assessed as ataxia at 30 to 300 mg/kg, po and measured for 2 hrs. In kind it is organism-based. The settings on record: in vivo, dose 30-300 mg/kg.
Data set [8] can be described thus: Acute toxicity in Swiss Webster mouse assessed as change in heart rate at 30 to 300 mg/kg, po and measured for 2 hrs. In kind it is organism-based. The settings on record: in vivo, dose 30-300 mg/kg.
A short description of data set [9]: Acute toxicity in Swiss Webster mouse assessed as animal death at 30 to 300 mg/kg, po and measured after 14 days. In kind it is organism-based. The settings on record: in vivo, 336 h, dose 30-300 mg/kg, time 14 day.
Data set [10] can be described thus: Acute toxicity in Swiss Webster mouse assessed as effect on body weight loss at 30 to 300 mg/kg, po and measured after 14 days. In kind it is organism-based. The conditions noted are these: in vivo, 336 h, dose 30-300 mg/kg, time 14 day.
Data set [11] can be described thus: Acute toxicity in Swiss Webster mouse assessed as macroscopic damage in internal organs at 30 to 300 mg/kg, po and measured after 14 days. It counts as organism-based. The settings on record: in vivo, 336 h, dose 30-300 mg/kg, time 14 day.
Data set [12] in a line: Acute toxicity in Swiss Webster mouse assessed as lethal dose. The conditions noted are these: in vivo.
The species named for data set [13] is Mus musculus. In words: Hypoglycemic activity in Swiss Webster mouse assessed as reduction in blood glucose level preincubated for 30 mins followed by insulin dose and measured at upto 120 mins by insulin tolerance test. The conditions noted are these: time <= 150.0 min. It counts as functional, organism-based.
The subject of data set [14] is Mus musculus. In words: Hypoglycemic activity in Swiss Webster mouse assessed as reduction in blood glucose level at 3 to 30 mg/kg preincubated for 30 mins followed by insulin dose and measured after 60 to 120 mins by insulin tolerance test. In kind it is functional, organism-based. The settings on record: dose 3-30 mg/kg, time 90-150 min.
Data set [15] in a line: Acute toxicity in Swiss Webster mouse assessed as animal death at 10 to 500 mg/kg, po and measured for 2 hrs. In kind it is organism-based. The settings on record: in vivo, dose 10-500 mg/kg.
Data set [16] is described as follows: Acute toxicity in Swiss Webster mouse assessed as sedation at 10 to 500 mg/kg, po and measured for 2 hrs. In kind it is organism-based. The settings on record: in vivo, dose 10-500 mg/kg.
A short description of data set [17]: Acute toxicity in Swiss Webster mouse assessed as loss of motor activity at 10 to 500 mg/kg, po and measured for 2 hrs. In kind it is organism-based. The conditions noted are these: in vivo, dose 10-500 mg/kg.
Data set [18] in a line: Acute toxicity in Swiss Webster mouse assessed as hyperactivity at 10 to 500 mg/kg, po and measured for 2 hrs. It counts as organism-based. The settings on record: in vivo, dose 10-500 mg/kg.
Data set [19] can be described thus: Acute toxicity in Swiss Webster mouse assessed as ataxia at 10 to 500 mg/kg, po and measured for 2 hrs. It counts as organism-based. The conditions noted are these: in vivo, dose 10-500 mg/kg.
Data set [20] is described as follows: Acute toxicity in Swiss Webster mouse assessed as change in heart rate at 10 to 500 mg/kg, po and measured for 2 hrs. It counts as organism-based. The conditions noted are these: in vivo, dose 10-500 mg/kg.
A short description of data set [21]: Acute toxicity in Swiss Webster mouse assessed as animal death at 10 to 500 mg/kg, po and measured after 14 days. The settings on record: in vivo, 336 h, dose 10-500 mg/kg, time 14 day. In kind it is organism-based.
Data set [22] in a line: Acute toxicity in Swiss Webster mouse assessed as effect on body weight loss at 10 to 500 mg/kg, po and measured after 14 days. The conditions noted are these: in vivo, 336 h, dose 10-500 mg/kg, time 14 day. It counts as organism-based.
Data set [23] is described as follows: Acute toxicity in Swiss Webster mouse assessed as macroscopic damage in internal organs at 10 to 500 mg/kg, po and measured after 14 days. In kind it is organism-based. The conditions noted are these: in vivo, 336 h, dose 10-500 mg/kg, time 14 day.

In general, IC50 refers to the concentration needed to halve the response being measured. As usually defined, the LD50 is the dose expected to kill half of the subjects tested. As to `CC(=O)O[C@H]1[C@@H]2C(=O)c3c(C)cc(O)c4c3[C@@]1(COC4=O)C1=C2c2c(C)cc(O)c3c(=O)n(-c4ccc([N+](=O)[O-])cc4)cc(c23)C1=O`, the IC50 in data set [1] came out at 3.1 µM. The Ka in data set [2] is 2.9 10^5/M. Besides, the Activity result in data set [3], in data set [4], in data set [5], in data set [6], in data set [7] and in data set [8] was “Non-Toxic” in each case. The Activity entry was “Non-Toxic” in data set [9], “Non-Toxic” in [10], “Non-Toxic” in data set [11] and “Dose-Dependent Effect” in the data set filed under Mus musculus [13]. The LD50 in data set [12] was found to be 300 mg/kg. For the same compound, in the data set on Mus musculus [14], the outcome was Active.

Turning to `CO[C@@]12c3c(C)cc(O)c4c(=O)occ(c34)C(=O)[C@@H]1[C@]13COC(=O)c4c(O)cc(C)c(c41)C(=O)[C@H]2[C@@H]3OC(C)=O`, in data set [1], the concentration for half-maximal inhibition (IC50) came out at 35.6 µM. Also, in [2], the Ka was 2 10^5/M. The Activity result in data set [15], in data set [16], in data set [17], in [18], in [19] and in [20] was “Non-Toxic” each time. Also, the Activity result in data set [21], in [22] and in data set [23] was “Non-Toxic” each time. Also, in data set [12], the median lethal dose (LD50) amounted to 500 mg/kg.

Values taken from ChEMBL document CHEMBL5375978, “Harnessing the Reactivity of Duclauxin toward Obtaining hPTP1B1-400 Inhibitors” (J Med Chem, 2023).
